From article PMC3048208 (British Journal of Cancer, 2011)
Entries after “also recorded” stand apart in the source; their conditions may differ. Counter-ions that a name gives are not always drawn. Like-named read-outs stand apart in the source and are kept apart here.

Legend:
[1] = Plasma pharmacokinetics of SB939 in patients, LC–MS/MS, non-compartmental; assay type: in vivo, human; details: for AUC(0-inf) / Cmax / half-life / Tmax: human, plasma
Experimental: Pre-dose PK assessment was also performed on day 15 of treatment.
Whole blood was collected into a 3-ml blood tubes containing K2EDTA anti-coagulant and centrifuged at 1000 g for 10 min at 4°C. Plasma was kept as an aliquot and frozen at −80°C. […] The samples were centrifuged at 1200 g for 10 min at 4°C, and the supernatant was stored at −80°C until analysis at MPI Research, Mattawan, MI, USA. Pharmacokinetic parameters were calculated by a non-compartmental method using WinNonlin 4.0 software (Pharsight Corporation, Mountain View, CA, USA). Peak plasma concentration (Cmax) and time to peak concentration (Tmax) were estimated from the plasma drug concentration–time curve. The elimination half-life (T1/2) during the log-linear terminal phase was calculated from the elimination rate constant determined by a linear regression analysis. The area under the concentration time curve extrapolated to infinity (AUC0−∞) was calculated by the log-linear trapezoidal method for the observed values, with extrapolation to infinity including at least three points on the terminal phase.

[2] = system: acetylated histone H3 (AcH3) in PBMCs; assay: AcH3 levels in PBMCs by western blot; assay type: in vivo, human
Experimental: Based on the preclinical data showing parallel changes in AcH3 in PBMCs and tumour tissue, PBMCs were selected for study in the phase I trial ([Novotny-Diermayr et al, 2008]; [Yong et al, 2009]).
Whole blood samples for PD evaluation were taken in cycle 1, days 1 and 15 at pre-dose followed by 3 and 24 h post-dose. For each sample, blood was collected at room temperature in an 8-ml BD Vacutainer CPT tube (Becton, Dickson and Company, Franklin Lakes, NJ, USA). Blood samples were processed in a refrigerated centrifuge within 30 min of collection to preserve histone acetylation status. PBMCs were extracted from blood, processed to pellet form and stored at −80°C. Levels of AcH3 in PBMCs were determined using a validated western blot technique ([Novotny-Diermayr et al, 2008]).

[3] = system: other zinc-binding enzymes; design: method as in Novotny-Diermayr et al, 2010; details: in vitro; ref Novotny-Diermayr et al, 2010; cited from earlier work
HCT-116 cells = system: HCT-116 cells; design: method as in Novotny-Diermayr et al, 2010; details: ref Novotny-Diermayr et al, 2010; cited from earlier work
dog = details: 3 days per week in a 28-day cycle; cited from earlier work
[4] = system: wide variety of cell lines; design: method as in Novotny-Diermayr et al, 2010; details: in vitro; ref Novotny-Diermayr et al, 2010; cited from earlier work
cancer cells = system: cancer cells; design: method as in Novotny-Diermayr et al, 2010; details: ref Novotny-Diermayr et al, 2010; cited from earlier work
[5] = system: xenograft models of colon (HCT-116), ovarian (A2780) and prostate (PC3, DU145) carcinomas; design: method as in Novotny-Diermayr et al, 2010; details: ref Novotny-Diermayr et al, 2010, cited from earlier work
class I, II and IV HDACs = details: in vitro; ref Novotny-Diermayr et al, 2010; cited from earlier work
[6] = oral, 10 mg, Day 1, dose level 1, 10 mg, 3 days every 2 weeks
[7] = oral, 10 mg, Day 1, dose level 2, 10 mg
[8] = oral, 10 mg, Day 3 or 5, dose level 1, 10 mg, 3 days every 2 weeks
[9] = oral, 10 mg, Day 3 or 5, dose level 2, 10 mg
[10] = oral, 20 mg, Day 1, dose level 3, 20 mg
[11] = oral, 20 mg, Day 3 or 5, dose level 3, 20 mg
[12] = oral, 30 mg, Day 1, dose level 4, 30 mg
[13] = oral, 30 mg, Day 3 or 5, dose level 4, 30 mg
[14] = oral, 50 mg, Day 1, dose level 5, 50 mg
[15] = oral, 50 mg, Day 3 or 5, dose level 5, 50 mg
[16] = oral, 60 mg, Day 1, dose level 5.5, 60 mg
[17] = oral, 60 mg, Day 3 or 5, dose level 5.5, 60 mg
[18] = oral, 70 mg, Day 1, dose level 6, 70 mg
[19] = oral, 70 mg, Day 3 or 5, dose level 6, 70 mg
[20] = oral, 90 mg, Day 1, dose level 7, 90 mg
[21] = oral, 90 mg, Day 3 or 5, dose level 7, 90 mg

SMILES: CCCCc1nc2cc(/C=C/C(=O)NO)ccc2n1CCN(CC)CC [SB939, 3-[2-butyl-1-(2-diethylaminoethyl)-1H-benzoimidazol-5-yl]-N-hydroxyacrylami-hydrochloride]
- Dose proportionality of mean AUC ([1]; between 10 and 90 mg): dose-proportional increases in AUC; also recorded: increased dose proportionally
- Accumulation on Day 5 compared with Day 1 ([1]; daily x 5 dosing): no accumulation
- AUC(0-inf) [1, 6]: 127 ng·h/mL
- Cmax [1, 6]: 14.6 ng/mL
- half-life ([1]; oral, 10 mg, Day 1, dose level 1, 10 mg, 3 days every 2 weeks, read-out: T1/2, mean (converted)): 7.1 h
- Tmax ([1]; oral, 10 mg, Day 1, dose level 1, 10 mg, 3 days every 2 weeks, read-out: Tmax, mean): 2.5 h
- AUC(0-inf) [1, 7]: 137 ng·h/mL
- Cmax [1, 7]: 19.5 ng/mL
- half-life ([1]; oral, 10 mg, Day 1, dose level 2, 10 mg, read-out: T1/2, mean (converted)): 8.6 h
- Tmax ([1]; oral, 10 mg, Day 1, dose level 2, 10 mg, read-out: Tmax, mean): 1.1 h
- AUC(0-inf) [1, 8]: 147 ng·h/mL
- Cmax [1, 8]: 18.3 ng/mL
- half-life ([1]; oral, 10 mg, Day 3 or 5, dose level 1, 10 mg, 3 days every 2 weeks, read-out: T1/2, mean (converted)): 8.3 h
- Tmax ([1]; oral, 10 mg, Day 3 or 5, dose level 1, 10 mg, 3 days every 2 weeks, read-out: Tmax, mean): 1.3 h
- AUC(0-inf) [1, 9]: 188 ng·h/mL
- Cmax [1, 9]: 23.3 ng/mL
- half-life ([1]; oral, 10 mg, Day 3 or 5, dose level 2, 10 mg, read-out: T1/2, mean (converted)): 8.1 h
- Tmax ([1]; oral, 10 mg, Day 3 or 5, dose level 2, 10 mg, read-out: Tmax, mean): 1.3 h
- AUC(0-inf) [1, 10]: 244 ng·h/mL
- Cmax [1, 10]: 45.9 ng/mL
- half-life ([1]; oral, 20 mg, Day 1, dose level 3, 20 mg, read-out: T1/2, mean (converted)): 5.9 h
- Tmax ([1]; oral, 20 mg, Day 1, dose level 3, 20 mg, read-out: Tmax, mean): 1.5 h
- AUC(0-inf) [1, 11]: 424 ng·h/mL
- Cmax [1, 11]: 51.3 ng/mL
- half-life ([1]; oral, 20 mg, Day 3 or 5, dose level 3, 20 mg, read-out: T1/2, mean (converted)): 7.7 h
- Tmax ([1]; oral, 20 mg, Day 3 or 5, dose level 3, 20 mg, read-out: Tmax, mean): 1.6 h
- AUC(0-inf) [1, 12]: 384 ng·h/mL
- Cmax [1, 12]: 55.8 ng/mL
- half-life ([1]; oral, 30 mg, Day 1, dose level 4, 30 mg, read-out: T1/2, mean (converted)): 8.6 h
- Tmax ([1]; oral, 30 mg, Day 1, dose level 4, 30 mg, read-out: Tmax, mean): 1.8 h
- AUC(0-inf) [1, 13]: 544 ng·h/mL
- Cmax [1, 13]: 74.3 ng/mL
- half-life ([1]; oral, 30 mg, Day 3 or 5, dose level 4, 30 mg, read-out: T1/2, mean (converted)): 8.8 h
- Tmax ([1]; oral, 30 mg, Day 3 or 5, dose level 4, 30 mg, read-out: Tmax, mean): 1.6 h
- AUC(0-inf) [1, 14]: 661 ng·h/mL
- Cmax [1, 14]: 124 ng/mL
- half-life ([1]; oral, 50 mg, Day 1, dose level 5, 50 mg, read-out: T1/2, mean (converted)): 5.6 h
- Tmax ([1]; oral, 50 mg, Day 1, dose level 5, 50 mg, read-out: Tmax, mean): 1.6 h
- AUC(0-inf) [1, 15]: 794 ng·h/mL
- Cmax [1, 15]: 101 ng/mL
- half-life ([1]; oral, 50 mg, Day 3 or 5, dose level 5, 50 mg, read-out: T1/2, mean (converted)): 8.9 h
- AUC(0-inf) [1, 16]: 1030 ng·h/mL
- Cmax [1, 16]: 210 ng/mL
- half-life ([1]; oral, 60 mg, Day 1, dose level 5.5, 60 mg, read-out: T1/2, mean (converted)): 6.7 h
- Tmax ([1]; oral, 60 mg, Day 1, dose level 5.5, 60 mg, read-out: Tmax, mean): 1.2 h
- AUC(0-inf) [1, 17]: 1630 ng·h/mL
- Cmax [1, 17]: 262 ng/mL
- half-life ([1]; oral, 60 mg, Day 3 or 5, dose level 5.5, 60 mg, read-out: T1/2, mean (converted)): 6.9 h
- Tmax ([1]; oral, 60 mg, Day 3 or 5, dose level 5.5, 60 mg, read-out: Tmax, mean): 1.3 h
- AUC(0-inf) [1, 18]: 1050 ng·h/mL
- Cmax [1, 18]: 178 ng/mL
- half-life ([1]; oral, 70 mg, Day 1, dose level 6, 70 mg, read-out: T1/2, mean (converted)): 7 h
- Tmax ([1]; oral, 70 mg, Day 1, dose level 6, 70 mg, read-out: Tmax, mean): 1.6 h
- AUC(0-inf) [1, 19]: 1130 ng·h/mL
- Cmax [1, 19]: 160 ng/mL
- half-life ([1]; oral, 70 mg, Day 3 or 5, dose level 6, 70 mg, read-out: T1/2, mean (converted)): 6.4 h
- Tmax ([1]; oral, 70 mg, Day 3 or 5, dose level 6, 70 mg, read-out: Tmax, mean): 1.5 h
- AUC(0-inf) [1, 20]: 1130 ng·h/mL
- Cmax [1, 20]: 229 ng/mL
- half-life ([1]; oral, 90 mg, Day 1, dose level 7, 90 mg, read-out: T1/2, mean (converted)): 6.4 h
- Tmax ([1]; oral, 90 mg, Day 1, dose level 7, 90 mg, read-out: Tmax, mean): 1 h
- AUC(0-inf) [1, 21]: 1230 ng·h/mL
- Cmax [1, 21]: 116 ng/mL
- half-life ([1]; oral, 90 mg, Day 3 or 5, dose level 7, 90 mg, read-out: T1/2, mean (converted)): 6.1 h
- Tmax ([1]; oral, 90 mg, Day 3 or 5, dose level 7, 90 mg, read-out: Tmax, mean): 1.5 h
- Tmax ([1]; po, 10 to 90 mg oral, read-out: Tmax, range over dose levels): 1 to 2.5 h
- half-life ([1]; po, 10 to 90 mg oral, read-out: Elimination (terminal) half-life, range over dose levels): 5.6 to 8.9 h
- Dose–PD relationship of AcH3 ([2]; 10 to 90 mg): no clear dose–PD relationship
- Change in AcH3 in PBMCs ([2]; cycle 1, 3 h or 24 h post-treatment): Increases in AcH3 were seen
- Effects on other zinc-binding enzymes [3]: no effects
- Effectiveness compared with vorinostat (HCT-116 cells): more effective than vorinostat
- No observed adverse effect level (dog): 60 mg m^−2 per day
- Anti-proliferative activities [4]: significant anti-proliferative activities
- Immunoblot changes after treatment (cancer cells): accumulation of acetylated histone H3 (AcH3) and acetylated α-tubulin, as well as increased expression levels of the cyclin dependant kinase inhibitor p21
- Anti-tumour efficacy ([5]; HCT-116, A2780, PC3, DU145 xenografts, MV4-11, HL-60 and B cell lymphoma murine models): dose-dependent anti-tumour efficacy
- Drug accumulation and inhibition of histone deacetylation in tumour tissues compared with vorinostat ([5]; preclinical experiments): prolonged drug accumulation and more sustained inhibition of histone deacetylation
- Selectivity for class I, II and IV HDACs compared with class III HDACs (class I, II and IV HDACs): > 1000 fold
